From US5686486A, “4-hydroxy-benzopyran-2-ones and 4-hydroxy-cycloalkyl[b]pyran-2-ones useful to treat retroviral infections” (priority 1995, dated 1997) come the findings set out here.

Several values for one entry are separate records, joined by “and”; a condition that tells them apart may be missing. Equal entries are not always repeated. Where two headings read alike, the source gives them in different places.

The assay deals with HIV-1 protease (Human immunodeficiency virus type 1 group M subtype B, UniProt P04585). Description: biochemical. The conditions noted are these: for inhibition at 1 µM: read-out: HIV-1 Protease % Inhib, dose 1.000 uM; for inhibition at 100 µM: read-out: HIV-1 Protease % Inhib, dose 100.000 uM; for inhibition at 0.123 µM: read-out: HIV-1 Protease % Inhib, dose 0.123 uM. Summed up:
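Biotinylated, FITC-labeled peptide substrate (20 μl of 0.2 μM) incubated with HIV-1 protease (10 μl of 0.1 μM) and compound in 0.1 M sodium acetate pH 5.5, 1.0 M NaCl, 0.05% NP-40, 1 h, room temperature, dark. Streptavidin beads then capture uncleaved substrate; filtered labeled product read by fluorescence, giving percent inhibition.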

The mark [1] stands for this setting: read-out: HIV-1 Protease % Inhib, dose 10.000 uM.
The mark [2] stands for this setting: read-out: HIV-1 Protease % Inhib, dose 0.370 uM.
The mark [3] stands for this setting: read-out: HIV-1 Protease % Inhib, dose 1.100 uM.
Setting [4] is: read-out: HIV-1 Protease % Inhib, dose 3.300 uM.
Setting [5] is: read-out: HIV-1 Protease % Inhib, dose 30.000 uM.
Where [6] appears, read: dose 3.300 uM, read-out: HIV-1 Protease % Inhib.
The mark [7] stands for this setting: dose 10.000 uM, read-out: HIV-1 Protease % Inhib.
[8] abbreviates: dose 30.000 uM, read-out: HIV-1 Protease % Inhib.
[9] abbreviates: dose 1.100 uM, read-out: HIV-1 Protease % Inhib.

Consider `C=CC(c1ccccc1)c1c(O)c2ccccc2oc1=O` (stereo not shown) [Example 74, 4-Hydroxy-3-(1-phenyl-2-propenyl)-coumarin], for which the inhibition at 1 µM was under 10% and the inhibition at 100 µM turned out to be 82.3%. Also, under setting [1], the inhibition at 10 µM is under 10%.
As for `CCC(c1ccccc1)c1c(O)c2ccc(C(F)(F)F)cc2oc1=O` (stereo not shown) [Example 86, Coumarin, 7-trifluoromethyl-4-hydroxy-3-(1-phenylpropyl)-], the inhibition at 1 µM was 10.5% and the inhibition at 100 µM stood at 95.8%. For the same molecule, the inhibition at 10 µM under setting [1] was 56.9%.
With `COC(=O)C(C(=O)OC)C(c1ccccc1)c1c(O)c2ccccc2oc1=O` (stereo not shown) [Example 157, 2-((4-Hydroxy-2-oxo-2H-chromen-3-yl)-phenyl-methyl)-malonic acid dimethyl ester], the inhibition at 1 µM was under 10% and the inhibition at 100 µM was determined as 64%. Also, the inhibition at 10 µM under setting [1] is under 10%.
With `CC(C)C(c1cccc(NS(=O)(=O)c2ccc(C#N)cc2)c1)c1c(O)c2c(oc1=O)CCCCCC2` (stereo not shown) [Example 372, 4-Cyano-N-[3-[1-(6,7,8,9,10-hexahydro-4-hydroxy-2-oxo-2H-cycloocta[b]pyran-3-yl)-2-methylpropyl]phenyl]-benzenesulfonamide], the inhibition at 0.123 µM was determined as 65.3%. Further, the inhibition at 0.37 µM under setting [2] stood at 91.3%. For the same molecule, the inhibition at 1.1 µM under setting [3] came out at 105%. In addition, under setting [4], the inhibition at 3.3 µM is 108%. Moreover, the inhibition at 10 µM under setting [1] is 109%. Further, under setting [5], the inhibition at 30 µM came to 106%.
As for `CCOC(=O)C(CC)c1c(O)c2ccccc2oc1=O` (stereo not shown) [Example 83, Butanoic acid, 2-(4-hydroxy-2-oxo-2H-1-benzopyran-3-yl)-, ethyl ester], the inhibition at 1 µM is under 10% and the inhibition at 100 µM turned out to be 50.1%. Further, the inhibition at 10 µM under setting [1] is under 10%.
In the case of `CC(C)CC(c1cccc(NS(=O)(=O)c2ccc(F)cc2)c1)c1c(O)c2c(oc1=O)CCCCCC2` (stereo not shown) [Example 425, Benzenesulfonamide, N-[3-[1-(5,6,7,8,9,10-hexahydro-4-hydroxy-2-oxo-2H-cycloocta[b]pyran-3-yl)-3-methylbutyl]phenyl]-4-fluoro-], the inhibition at 0.123 µM came out at 97.4%. Besides, under setting [2], the inhibition at 0.37 µM came to 109%. The inhibition at 1.1 µM under setting [3] amounted to 101%. Under setting [4], the inhibition at 3.3 µM turned out to be 108%. Besides, the inhibition at 10 µM under setting [1] was 98.5%. Besides, the inhibition at 30 µM under setting [5] worked out at 98.5%.
`CC(C)CC(c1cccc(NS(=O)(=O)c2cccc3cccnc23)c1)c1c(O)c2c(oc1=O)CCCCCC2` (stereo not shown) [Example 428, 8-Quinolinesulfonamide, N-[3-[1-(5,6,7,8,9,10-hexahydro4-hydroxy-2-oxo-2H-cycloocta[b]pyran-3-yl)-3-methylbutyl]phenyl]-]: the inhibition at 0.123 µM turned out to be 86.3%. Moreover, the inhibition at 0.37 µM under setting [2] is 84%. Moreover, under setting [3], the inhibition at 1.1 µM was found to be 86.5%. For the same molecule, under setting [4], the inhibition at 3.3 µM was determined as 87.1%. The inhibition at 10 µM under setting [1] is 87.9%. The inhibition at 30 µM under setting [5] was 84.2%.
As to `CCCOc1ccc2c(O)c(C(CC)c3ccccc3)c(=O)oc2c1` (stereo not shown) [Example 169, Coumarin, 4-hydroxy-3-(1-phenylpropyl)-7-propoxy], the inhibition at 1.1 µM under setting [3] amounted to 13.1%. Also, the inhibition at 3.3 µM under setting [4] came out at 44.4%. The inhibition at 10 µM under setting [1] was found to be 76.8%. In addition, the inhibition at 30 µM under setting [5] amounted to 99.9%.
With `CC(c1cccc(C(=O)NCC(=O)OC(C)(C)C)c1)c1c(O)c2ccccc2oc1=O` (stereo not shown) [Example 22, 4-Hydroxy-3-[1-[3-[[[(1,1-dimethylethoxycarbonyl)methyl]amino]carbonyl]phenyl]ethyl]-coumarin], the inhibition at 1 µM is under 10% and the inhibition at 100 µM worked out at 58.7%. In addition, the inhibition at 10 µM under setting [1] is under 10%.
Take `O=c1oc2ccccc2c(O)c1C1(c2ccccc2)CC1` [Example 142, 4-Hydroxy-3-(1-phenyl-cyclopropyl)-chromen-2-one]: the inhibition at 1 µM was under 10% and the inhibition at 100 µM was 71.8%. Besides, the inhibition at 10 µM under setting [1] stood at 15.7%.
Consider `CC(C)c1ccc(S(=O)(=O)Nc2cccc(C(c3c(O)c4c(oc3=O)CCCCCC4)C3CC3)c2)cc1` (stereo not shown) [Example 345, N-[3-[Cyclopropyl(5,6,7,8,9,10-hexahydro-4-hydroxy-2-oxo-2H-cycloocta[b]pyran-3-yl)methyl]phenyl]-4-(1-methylethyl)-benzenesulfonamide], for which the inhibition at 0.123 µM is 50%. The inhibition at 0.37 µM under setting [2] was 77%. For the same molecule, the inhibition at 1.1 µM under setting [3] amounted to 90.4%. Also, the inhibition at 3.3 µM under setting [4] was determined as 101%. Moreover, the inhibition at 10 µM under setting [1] stood at 105%. Besides, the inhibition at 30 µM under setting [5] amounted to 91.8%.
One may read the IC50 as the concentration needed to halve the response being measured. As for `CCC(c1ccccc1)c1c(O)c2ccccc2oc1=O` (stereo not shown) [Example 105, 4-hydroxy-3-(1-phenylpropyl)-coumarin], the IC50 (read-out: HIV-1 Protease IC50) is 4.88 µM and 3.88 µM.
On to `O=c1oc2c(c(O)c1C(c1cccc(NS(=O)(=O)c3ccc(Br)cc3)c1)C1CC1)CCCCCC2` (stereo not shown) [Example 272, 4-Bromo-N-[3-[cyclopropyl(5,6,7,8,9,10-hexahydro-4-hydroxy-2-oxo-2H-cycloocta[b]pyran-3-yl)methyl]phenyl]-benzenesulfonamide], for which the inhibition at 0.123 µM worked out at 67.1%. The inhibition at 0.37 µM under setting [2] amounted to 85.2%. In addition, under setting [3], the inhibition at 1.1 µM amounted to 95.3%. Besides, the inhibition at 3.3 µM under setting [4] turned out to be 96.2%. Under setting [1], the inhibition at 10 µM came to 101%. For the same molecule, the inhibition at 30 µM under setting [5] stood at 104%.
On to `CCC(c1ccccc1)c1c(O)c2ccc(OCCOCCOC)cc2oc1=O` (stereo not shown) [Example 151, 4-Hydroxy-7-(2-(2-methoxy-ethoxy)-ethoxy)-3-(1-phenyl-propyl)-chromen-2-one], for which the inhibition at 1 µM is 29.1% and the inhibition at 100 µM is 92.4%. Under setting [1], the inhibition at 10 µM was 82.8%.
Take `CCC(c1cccc(NC(=O)C2CCCN2C(=O)OC(C)(C)C)c1)c1c(O)c2ccccc2oc1=O` (stereo not shown) [Example 59, 1-Pyrrolidinecarboxylic acid, 2-[[[3-[1-(4-hydroxy-2-oxo-2H-1-benzopyran-3-yl)propyl]phenyl]amino]carbonyl]-, 1,1-dimethylethyl ester]: the inhibition at 1 µM was under 10% and the inhibition at 100 µM came to 82.8%. Moreover, the inhibition at 10 µM under setting [1] stood at 21.5%.
As to `Nc1cc(N)cc(C(c2c(O)c3c(oc2=O)CCCCCC3)C2CC2)c1` (stereo not shown) [Example 484, 3-[Cyclopropyl-(3,5-diamino-phenyl)-methyl]-4-hydroxy-5,6,7,8,9,10-hexahydro-cycloocta[b]pyran-2-one], the inhibition at 3.3 µM under setting [6] was 17.7%. Moreover, under setting [7], the inhibition at 10 µM stood at 37.2%. The inhibition at 30 µM under setting [8] was found to be 51.6%.
Regarding `O=c1oc2c(c(O)c1C(c1cccc(NS(=O)(=O)c3cccc([N+](=O)[O-])c3)c1)C1CC1)CCCCCC2` (stereo not shown) [Example 274, N-[3-[Cyclopropyl(5,6,7,8,9,10-hexahydro-4-hydroxy-2-oxo-2H-cycloocta[b]pyran-3-yl)methyl]phenyl]-3-nitro-benzenesulfonamide], the inhibition at 0.123 µM worked out at 70%. Also, the inhibition at 0.37 µM under setting [2] came to 88.2%. Further, the inhibition at 1.1 µM under setting [3] is 95.8%. Moreover, the inhibition at 3.3 µM under setting [4] is 98.8%. Moreover, the inhibition at 10 µM under setting [1] was determined as 103%. Under setting [5], the inhibition at 30 µM is 105%.
With `COCCOCCC1CCCCc2c1oc(=O)c(C(c1ccccc1)C1CC1)c2O` (stereo not shown) [Example 180, 3-(Cyclopropylphenylmethyl)-6,7,8,9-tetrahydro-4-hydroxy-9-[2-(2-methoxyethoxy)ethyl]-cyclohepta[b]pyran-2(5H)-one], the inhibition at 1.1 µM under setting [9] came out at 31.3%. Further, the inhibition at 3.3 µM under setting [6] was found to be 67.7%. The inhibition at 10 µM under setting [7] turned out to be 94.1%. For the same molecule, the inhibition at 30 µM under setting [8] came to 109%.
On to `O=c1oc2c(c(O)c1C(c1cccc(NC(=S)Nc3ccccc3)c1)C1CC1)CCCCCC2` (stereo not shown) [Example 366, Thiourea, N-[3-[cyclopropyl(5,6,7,8,9,10-hexahydro-4-hydroxy-2-oxo-2H-cycloocta[b]pyran-3-yl)methyl]phenyl]-N'-phenyl-], for which the inhibition at 1.1 µM under setting [9] stood at 40.3%. Moreover, the inhibition at 3.3 µM under setting [6] worked out at 72.9%. Besides, the inhibition at 10 µM under setting [7] came out at 92.2%. The inhibition at 30 µM under setting [8] is 107%.
As for `Cc1cccc(Cl)c1S(=O)(=O)Nc1cccc(C(c2c(O)c3c(oc2=O)CCCCCC3)C2CC2)c1` (stereo not shown) [Example 287, 2-Chloro-N-[3-[cyclopropyl(5,6,7,8,9,10-hexahydro4-hydroxy-2-oxo-2H-cycloocta[b]pyran-3-yl)methyl]phenyl]-6-methyl-benzenesulfonamide], the inhibition at 0.37 µM (dose 0.370 uM, read-out: HIV-1 Protease % Inhib) was 14.1%. For the same molecule, the “HIV-1 Protease % Inhib” value reads like this: (dose 1.100 uM) 36.69%; (dose 3.300 uM) 64.32%; (dose 10.000 uM) 92.75%; (dose 30.000 uM) 106.21%. Moreover, under setting [9], the inhibition at 1.1 µM was found to be 44.1%. Under setting [6], the inhibition at 3.3 µM amounted to 68.2%. For the same molecule, the inhibition at 10 µM under setting [7] is 85.8%. For the same molecule, the inhibition at 30 µM under setting [8] is 86.7%.
Regarding `Nc1ccc(S(=O)(=O)Nc2cccc(C(c3c(O)c4c(oc3=O)CCCCCC4)C3CC3)c2)cc1` (stereo not shown) [Example 348 (First Title Compound), 4-Amino-N-[3-[cyclopropyl(5,6,7,8,9,10-hexahydro-4-hydroxy-2-oxo-2H-cycloocta[b]pyran-3-yl)methyl]phenyl]-benzenesulfonamide], the inhibition at 0.123 µM is 28.1%. Further, the inhibition at 0.37 µM under setting [2] came out at 80.7%. Under setting [3], the inhibition at 1.1 µM was found to be 103%. Moreover, the inhibition at 3.3 µM under setting [4] turned out to be 108%. Moreover, the inhibition at 10 µM under setting [1] was found to be 113%. Under setting [5], the inhibition at 30 µM is 109%.
